Broadly, the IC50 is the point on the concentration scale where inhibition reaches its midpoint. Usually melting point stands for the temperature of the solid-liquid transition.

Each structure is given as a SMILES string.

The values that follow come from patent US20020151568A1, “Piperidinylethyl-, phenoxyethyl-, and beta-fluorophenethyl-substituted thiourea compounds with potent anti-HIV activity” (priority 2000, published 2002).

The subject of the first data set is HIV-1 strain HTLVIIIB
Description: Inhibition of HIV-1 HTLVIIIB replication in PBMC (p24 antigen EIA). The format is cell-based. The following applies: HIV-1 strain HTLVIIIB in human PBMC, p24 EIA on 7th day after infection. The procedure:
The cells were then infected with virus at a multiplicity of infection (MOI) of 0.1 during a one-hour adsorption period at 37° C. in a humidified 5% CO2 atmosphere. Subsequently, cells were cultured in 96-well microplates (100 μL/well; 2×10^6 cells/mL, triplicate wells) in the presence of various inhibitor concentrations. […] Ag. […] The applied p24 EIA was the unmodified kinetic assay commercially available from Coulter Corporation/Immunotech, Inc. (Westbrook, Me.).
To test the therapeutic activity of the compounds of the invention, p24 assays were utilized as previously described. […] 1 during a one-hour adsorption period at 37° C. in a humidified 5% CO2 atmosphere. Subsequently, cells were cultured in 96-well microliter plates ([…]; 2×10^6 cells/mL, triplicate wells) in the presence of various inhibitor concentrations. Aliquots of culture supernatants were removed from the wells on the 7th day after infection for p24 antigen p24 enzyme immunoassays (EIA).
The applied p24 EIA was the unmodified kinetic assay commercially available from Coulter Corporation/Immunotech, Inc. (Westbrooke, Me.), which utilizes a murine monoclonal antibody to HIV core protein coated onto microwell strips to which the antigen present in the test culture supernatant samples binds. Percent inhibition of viral replication was calculated by comparing the p24 values from the test substance treated infected cells with p24 values from untreated infected cells (i.e., virus controls).
Take `S=C(NCCN1CCCCC1)Nc1ccc(Br)cn1` [Compound 2, N-[2-(1-piperidinylethyl)]-N′-[2-(5-bromopyridyl)]-thiourea]: the “IC50 [HTL VIIIB]” value is reported as “nanomolar concentrations”.
Turning to `FC(CNC(=S)Nc1ccc(Br)cn1)c1ccccc1` (stereo not drawn) [Compound 12, β-Fluoro[2-phenethyl]-N′-[2-(5-bromopyridyl)]thiourea], the “IC50 [HTL VIIIB]” value is listed as “subnanomolar”.
For `S=C(NCCN1CCCCC1)Nc1ccc(Cl)cn1` [Compound 5, N-[2-(1-piperidinylethyl)]-N′-[2-(5-chloropyridyl)]-thiourea], the “IC50 [HTL VIIIB]” value was “nanomolar concentrations”.
`FC(CNC(=S)Nc1ccc(Cl)cn1)c1ccccc1` (stereo not drawn) [Compound 11, β-Fluoro[2-phenethyl]-N′-[2-(5-chloropyridyl)] thiourea]: the “IC50 [HTL VIIIB]” value is listed as “subnanomolar”.

The data set is the same for the next values; noted with them: HIV-1 strain HTLVIIIB in human PBMC, p24 EIA on 7th day after infection; read-out: IC50 [HTL VIIIB].
For the compound `S=C(NCCOc1ccccc1)Nc1ccc(Br)cn1` [Compound 10, N-[2-(Phenoxy)ethyl]-N′-[2-(5-bromopyridyl)] thiourea], the IC50 was 5 nM.
Consider `S=C(NCCN1CCCCC1)Nc1ccc(Br)cn1` [Compound 2, N-[2-(1-piperidinylethyl)]-N′-[2-(5-bromopyridyl)]-thiourea], for which the concentration for half-maximal inhibition (IC50) is 2 nM.
As to `S=C(NCCc1ccccn1)Nc1ccc(Br)cn1` [Trovirdine, reference compound], the IC50 worked out at 7 nM.
In the case of `FC(CNC(=S)Nc1ccc(Br)cn1)c1ccccc1` (stereo not drawn) [Compound 12, β-Fluoro[2-phenethyl]-N′-[2-(5-bromopyridyl)]thiourea], the half-maximal inhibitory concentration (IC50) is less than 1 nM.
Take `S=C(NCCN1CCCCC1)Nc1ccc(Cl)cn1` [Compound 5, N-[2-(1-piperidinylethyl)]-N′-[2-(5-chloropyridyl)]-thiourea]: the 50% inhibitory concentration (IC50) was 1 nM.
For the compound `S=C(NCCOc1ccccc1)Nc1ccc(Cl)cn1` [Compound 9, N-[2-(Phenoxy)ethyl]-N′-[2-(5-chloropyridyl)]thiourea], the IC50 was 4 nM.
Regarding `CC1CCCN(CCNC(=S)Nc2ccc(Br)cn2)C1` (stereo not drawn) [Compound 3, N-[2-(3-methylpiperidinylethyl)]-N′-[2-(5-bromopyridyl)]-thiourea], the half-inhibitory concentration (IC50) stood at 80 nM.
Take `S=C(NCCN1CCCCC1)Nc1ccccn1` [Compound 1]: the IC50 is more than 100000 nM.
Regarding `CC1CCCN(CCNC(=S)Nc2ccc(Cl)cn2)C1` (stereo not drawn) [Compound 6, N-[2-(3-methylpiperidinylethyl)]-N′-[2-(5-chloropyridyl)]-thiourea], the 50% inhibitory concentration (IC50) worked out at 20 nM.
Regarding `CC1CCCCN1CCNC(=S)Nc1ccc(Br)cn1` (stereo not drawn) [Compound 4, N-[2-(2-methylpiperidinylethyl)]-N′-[2-(5-bromopyridyl)]-thiourea], the IC50 was less than 1 nM.
Consider `S=C(NCCOc1ccccc1)Nc1ccccn1` [Compound 8, N-[2-(Phenoxy)ethyl]-N′-[2-(pyridyl)]thiourea], for which the half-maximal inhibitory concentration (IC50) came to 5 nM.
Turning to `FC(CNC(=S)Nc1ccc(Cl)cn1)c1ccccc1` (stereo not drawn) [Compound 11, β-Fluoro[2-phenethyl]-N′-[2-(5-chloropyridyl)] thiourea], the IC50 was less than 1 nM.

The data set is the same for the next values; noted with them: Human immunodeficiency virus 1; HIV-1 strain HTLVIIIB in human PBMC, p24 EIA on 7th day after infection; read-out: IC50 [HTL VIIIB].
Consider `CC1CCCCN1CCCNC(=S)Nc1ccc(Cl)cn1` (stereo not drawn) [Compound 7, N-[3-(2-methylpiperidinylpropyl)]-N′-[2-(5-chloropyridyl)]-thiourea], for which the IC50 turned out to be 1 nM.

Another data set relates to human peripheral blood mononuclear cells (PBMC). Description: Microculture Tetrazolium Assay (MTA, XTT) for cell viability of non-infected PBMC. It counts as cell-based. The following applies: 7 days, read-out: CC (cytotoxic concentration, CC50). The protocol:
In parallel, the effects of various treatments on cell viability were also examined, as described in Enrice et.al., supra. In brief, non-infected PBNWC were treated with each compound for 7 days under identical experimental conditions. A Microculture Tetrazolium Assay (MTA), using 2,3-bis(2-methoxy-4nitro-5-sulfophenyl)-5-[(phenylarnino)-carbonyl]-2H-tetrazolium hydroxide (XTT), was performed to quantitate cellular proliferation.
(Tetrazolium dyes change colour on reduction, which living cells bring about.)
On to `S=C(NCCOc1ccccc1)Nc1ccc(Br)cn1` [Compound 10, N-[2-(Phenoxy)ethyl]-N′-[2-(5-bromopyridyl)] thiourea], for which the CC50 was 92000 nM.
For `S=C(NCCc1ccccn1)Nc1ccc(Br)cn1` [Trovirdine, reference compound], the CC50 worked out at 100000 nM.
Consider `FC(CNC(=S)Nc1ccc(Br)cn1)c1ccccc1` (stereo not drawn) [Compound 12, β-Fluoro[2-phenethyl]-N′-[2-(5-bromopyridyl)]thiourea], for which the CC50 came out at 50000 nM.
Take `S=C(NCCOc1ccccc1)Nc1ccc(Cl)cn1` [Compound 9, N-[2-(Phenoxy)ethyl]-N′-[2-(5-chloropyridyl)]thiourea]: the CC50 was more than 100000 nM.
As for `CC1CCCCN1CCNC(=S)Nc1ccc(Br)cn1` (stereo not drawn) [Compound 4, N-[2-(2-methylpiperidinylethyl)]-N′-[2-(5-bromopyridyl)]-thiourea], the CC50 was determined as 50000 nM.
The same measure, in the same setting: then `S=C(NCCOc1ccccc1)Nc1ccccn1` [Compound 8, N-[2-(Phenoxy)ethyl]-N′-[2-(pyridyl)]thiourea], with 55000 nM; and `FC(CNC(=S)Nc1ccc(Cl)cn1)c1ccccc1` (stereo not drawn) [Compound 11, β-Fluoro[2-phenethyl]-N′-[2-(5-chloropyridyl)] thiourea], with 30000 nM.

A further data set deals with HIV-1 strain RT-MDR (V106A). The experiment in a line: Inhibition of replication of NNI-resistant HIV-1 strain RT-MDR in H9 cells. The format is cell-based. The conditions noted are these: Human immunodeficiency virus 1, H9, read-out: IC50 RT-MDR (V106A). The procedure:
(§1) The ability of Compounds 4 (HI-516), 11 (HI-566), and 12 (HI-565) to inhibit the replication of NNI-resistant HIV-1 strains, A17 (Y181C) and RT-MDR (V106A), was analyzed. The anti-HIV activity of the compounds was measured by determining their ability to inhibit the replication of HIV-1 strains A17 in PBMC from healthy volunteer donors and RT-MDR in H9 cells.
(§2) Compounds 4, 11, and 12 were compared with nevirapine or delavirdine, two known non-nucleoside reverse transcriptase inhibitors of HIV-1 RT.
For `Cc1ccnc2c1NC(=O)c1cccnc1N2C1CC1` [Nevirapine, reference compound], the half-maximal inhibitory concentration (IC50) worked out at 1400 nM.
For the compound `CC(C)Nc1cccnc1N1CCN(C(=O)c2cc3cc(NS(C)(=O)=O)ccc3[nH]2)CC1` [Delavirdine, reference compound], the 50% inhibitory concentration (IC50) is 400 nM.

The data set is the same for the next values; noted with them: RT-MDR in H9 cells.
Consider `FC(CNC(=S)Nc1ccc(Br)cn1)c1ccccc1` (stereo not drawn) [Compound 12, β-Fluoro[2-phenethyl]-N′-[2-(5-bromopyridyl)]thiourea], for which the “IC50 RT-MDR (V106A)” value is “submicromolar”.
Take `CC1CCCCN1CCNC(=S)Nc1ccc(Br)cn1` (stereo not drawn) [Compound 4, N-[2-(2-methylpiperidinylethyl)]-N′-[2-(5-bromopyridyl)]-thiourea]: the “IC50 RT-MDR (V106A)” value is reported as “less active than nevirapine or delavirdine”.
The same measure, in the same setting: then `FC(CNC(=S)Nc1ccc(Cl)cn1)c1ccccc1` (stereo not drawn) [Compound 11, β-Fluoro[2-phenethyl]-N′-[2-(5-chloropyridyl)] thiourea], with “submicromolar”.

The same data set, now with this note: RT-MDR in H9 cells; read-out: IC50 RT-MDR (V106A).
On to `FC(CNC(=S)Nc1ccc(Br)cn1)c1ccccc1` (stereo not drawn) [Compound 12, β-Fluoro[2-phenethyl]-N′-[2-(5-bromopyridyl)]thiourea], for which the IC50 was 200 nM.
As to `CC1CCCCN1CCNC(=S)Nc1ccc(Br)cn1` (stereo not drawn) [Compound 4, N-[2-(2-methylpiperidinylethyl)]-N′-[2-(5-bromopyridyl)]-thiourea], the half-maximal inhibitory concentration (IC50) was 1900 nM.
As for `FC(CNC(=S)Nc1ccc(Cl)cn1)c1ccccc1` (stereo not drawn) [Compound 11, β-Fluoro[2-phenethyl]-N′-[2-(5-chloropyridyl)] thiourea], the IC50 was 100 nM.

The test system of the next data set is HIV-1 strain A17 (Y181C). The experiment in a line: Inhibition of replication of NNI-resistant HIV-1 strain A17 in PBMC. The format is cell-based. The following applies: A17 in PBMC from healthy volunteer donors. The procedure:
as §1, §2
For the compound `CC1CCCCN1CCNC(=S)Nc1ccc(Br)cn1` (stereo not drawn) [Compound 4, N-[2-(2-methylpiperidinylethyl)]-N′-[2-(5-bromopyridyl)]-thiourea], the “IC50 A17 (Y181C)” value is “not active”.

Still in this data set, the particulars now being: A17 in PBMC from healthy volunteer donors; read-out: IC50 A17 (Y181C).
With `FC(CNC(=S)Nc1ccc(Br)cn1)c1ccccc1` (stereo not drawn) [Compound 12, β-Fluoro[2-phenethyl]-N′-[2-(5-bromopyridyl)]thiourea], the IC50 amounted to 100 nM.
For the compound `CC1CCCCN1CCNC(=S)Nc1ccc(Br)cn1` (stereo not drawn) [Compound 4, N-[2-(2-methylpiperidinylethyl)]-N′-[2-(5-bromopyridyl)]-thiourea], the concentration for half-maximal inhibition (IC50) was more than 100000 nM.
As for `FC(CNC(=S)Nc1ccc(Cl)cn1)c1ccccc1` (stereo not drawn) [Compound 11, β-Fluoro[2-phenethyl]-N′-[2-(5-chloropyridyl)] thiourea], the IC50 came to 100 nM.

The same data set, now with this note: Human immunodeficiency virus 1, PBMC, read-out: IC50 A17 (Y181C).
As to `Cc1ccnc2c1NC(=O)c1cccnc1N2C1CC1` [Nevirapine, reference compound], the IC50 stood at 21400 nM.
Regarding `CC(C)Nc1cccnc1N1CCN(C(=O)c2cc3cc(NS(C)(=O)=O)ccc3[nH]2)CC1` [Delavirdine, reference compound], the IC50 was determined as 50000 nM.

System in another data set: not given
Assay: not given
Conditions: not given
Take `CC1CCCCN1CCCNC(=S)Nc1ccc(Cl)cn1` (stereo not drawn) [Compound 7, N-[3-(2-methylpiperidinylpropyl)]-N′-[2-(5-chloropyridyl)]-thiourea]: the melting point was 117 to 118 °C.
